# Assay results: patent US9527805B2, “Small molecules as epigenetic modulators of lysine-specific demethylase 1 and methods of treating disorders” (priority 2010, dated 2016)
# Read-outs that look alike come from different tables or passages of the source.
# What was measured:
# recombinant human LSD1 = molecular target: T1, recombinant human LSD1 (Homo sapiens, UniProt O60341); assay: LSD1 demethylase assay, luminol-dependent chemiluminescence (H2O2 production), H3K4me2 (1-21 aa) peptide substrate; assay type: biochemical; details: compound at 10 μM
# T1 construct: Full-length human LSD1 cDNA was subcloned into the pET15b bacterial expression vector; 6xHis (N); made in house; host or cells: Escherichia coli BL21(DE3)
# Experimental: Full-length human LSD1 cDNA was subcloned into the pET15b bacterial expression vector (Novagen, Madison, Wis.) in frame with an N-terminal 6×HIS-tag and transformed into the BL21(DE3) strain of Escherichia coli. Following selection, expression and purification of recombinant LSD1 protein were performed as previously described. Briefly, expression of LSD1-HIS protein was induced by 1 mM IPTG for 6 h at 25° C. The HIS-tagged protein was purified using Ni-NTA affinity purification resin and column as recommended by the manufacturer (Qiagen, Valencia, Calif.). Bound protein was eluted by imidazole and the eluate was dialyzed in PBS at 4° C. Enzymatic activity of LSD1 was examined using luminol-dependent chemiluminescence to measure the production of H2O2, as previously described. In brief, LSD1 activity was assayed in 50 mM Tris, pH 8.5, 50 mM KCl, 5 mM MgCl, 5 nmol luminol, and 20 μg/ml horseradish peroxidase with the indicated concentrations of H3K4me2 (1-21 aa) peptide as substrate. The integral values were calibrated against standards containing known concentrations of H2O2, and the activities expressed as pmols H2O2/mg protein/min. Reaction mixtures were incubated with or without 5 μg purified LSD1 in 50 mM Tris, pH 8.5, 50 mM KCl, 5 mM MgCl, 0.5% BSA, and 5% glycerol for 3 hr at 37° C. This reaction mixture was analyzed by Western blotting using antibodies (Millipore) that specifically recognize the dimethyl group of H3K4.
# [1] = test system: H3K4me2 in the P19 cell line; details: cited from earlier work
# [2] = test system: HCT116 human colon tumor xenograft; assay: HCT116 human colon tumor xenograft model; assay type: in vivo, athymic nu/nu Fox Chase mice; details: 2 mg/kg, 5 times a week over 38 days
# Experimental: Previously, various polyaminobiguanidides were evaluated in an HCT116 human colon tumor xenograft model in athymic nu/nu Fox Chase mice. Mice were treated with polyaminobiguanidides, 5-azacytidine (5-AC) or a combination of the two agents. Drugs were administered 5 times a week over a period of 38 days.
# H3K4me2 = H3K4me2 level by Western blotting of nuclear fractions; assay type: cell-based; details: Homo sapiens
# Experimental: Synthetic H3K4me2 peptides were purchased from Millipore (Billerica, Mass.). Calu-6 cells were maintained in RPMI medium, both supplemented with 10% fetal bovine serum (Gemini Bio-Products, Woodland, Calif.) and grown at 37° C. in 5% CO2 atmosphere.
# Cytoplasmic and nuclear fractions were prepared for Western blot analysis using the NE-PER™ Nuclear and Cytoplasmic Extraction Kit (Pierce, Rockford, Ill.). Primary antibodies against H3K4me2 were from Millipore. The pCNA monoclonal antibody was purchased from Oncogene Research Products (Cambridge, Mass.). Dye-conjugated secondary antibodies were used for quantification of Western blot results using the Odyssey Infrared Detection system and software (LI-COR Biosciences, Lincoln, Nebr.).
# [3] = molecular target: recombinant LSD1/CoRest complex (Homo sapiens, UniProt O60341); details: cited from earlier work
# [4] = 24 h, read-out: H3K4me2 Fold Increase (24 h)
# [5] = 48 h, read-out: H3K4me2 Fold Increase (48 h)
Compound,remaining activity at 10 µM (recombinant human LSD1),further results
N[C@@H]1C[C@H]1c1ccccc1 (racemic) [tranylcypromine],,effect on global levels of H3K4me2 (in words) [1]: increase global levels of H3K4me2
O=C(O)CCCCC(=O)Nc1ccccc1F [Entry 36],76.4%,
"Nc1ncn([C@@H]2O[C@H](CO)[C@@H](O)[C@H]2O)c(=O)n1 [Entry 5-AC, 5-azacytidine]",,reduction of tumor growth [2]: about 50%
O=C(O)CCCC(=O)Nc1ccccc1F [Entry 35],100%,
O=C(O)CC(=O)Nc1ccccc1F [Entry 33],98.2%,fold induction at 5 µM (H3K4me2; [4]): 1.81; fold induction at 10 µM (H3K4me2; [4]): 1.5; fold induction at 5 µM (H3K4me2; [5]): 3.15; fold induction at 10 µM (H3K4me2; [5]): 1.09
COC(=O)[C@H](CCCCNC(=O)NCCC(c1ccccc1)c1ccccc1)NC(=O)CC(=O)Nc1ccccc1F [Entry 41],100%,
COC(=O)[C@@H](N)CCCCNC(=O)CC(=O)Nc1ccccc1F [Entry 38],88.4%,fold induction at 5 µM (H3K4me2; [4]): 0.3; fold induction at 10 µM (H3K4me2; [4]): 0.2; fold induction at 5 µM (H3K4me2; [5]): 0.7; fold induction at 10 µM (H3K4me2; [5]): 5.6
O=C(O)CCC(=O)Nc1ccccc1F [Entry 34],92.6%,
COC(=O)[C@H](CCCCNC(=S)NC(c1ccccc1)c1ccccc1)NC(=O)CC(=O)Nc1ccccc1F [Entry 42],100%,fold induction at 5 µM (H3K4me2; [4]): 49.1; fold induction at 10 µM (H3K4me2; [4]): 60.6; fold induction at 5 µM (H3K4me2; [5]): 0.5; fold induction at 10 µM (H3K4me2; [5]): 3
O=C(O)CCCCCC(=O)Nc1ccccc1F [Entry 37],95.9%,
COC(=O)[C@H](CCCCNC(=O)NC(c1ccccc1)c1ccccc1)NC(=O)CC(=O)Nc1ccccc1F [Entry 39],100%,
NNCCc1ccccc1 [phenelzine],,effect on global levels of H3K4me2 (in words) [1]: increase global levels of H3K4me2; effect on nucleosomal demethylation (in words) [3]: inactivate nucleosomal demethylation
COC(=O)[C@H](CCCCNC(=O)NCC(c1ccccc1)c1ccccc1)NC(=O)CC(=O)Nc1ccccc1F [Entry 40],100%,

# Second part, led by results:
remaining activity at 10 µM (recombinant human LSD1),Compound,further results
100%,COC(=O)[C@H](CCCCNC(=S)NCCC(c1ccccc1)c1ccccc1)NC(=O)CC(=O)Nc1ccccc1F [Entry 44],
90.4%,C#CCNCCCC[C@H](NC(=O)CC(=O)Nc1ccccc1F)C(=O)OC [Entry 46],
100%,C#CCN(CC#C)CCCC[C@H](NC(=O)CCCC(=O)Nc1ccccc1F)C(=O)OC [Entry 48],
100%,C#CCN(CC#C)CCCC[C@H](NC(=O)CCCCCC(=O)Nc1ccccc1F)C(=O)OC [Entry 50],
100%,COC(=O)[C@H](CCCCNC(=S)NCC(c1ccccc1)c1ccccc1)NC(=O)CC(=O)Nc1ccccc1F [Entry 43],
84.1%,C#CCN(CC#C)CCCC[C@H](NC(=O)CC(=O)Nc1ccccc1F)C(=O)OC [Entry 45],
92.4%,C#CCN(CC#C)CCCC[C@H](NC(=O)CCC(=O)Nc1ccccc1F)C(=O)OC [Entry 47],
100%,C#CCN(CC#C)CCCC[C@H](NC(=O)CCCCC(=O)Nc1ccccc1F)C(=O)OC [Entry 49],
